# Assay results from patent US9247759B2, “Identification of human T2R receptors that respond to bitter compounds that elicit the bitter taste in compositions, and the use thereof in assays to identify compounds that inhibit (block) bitter taste in compositions and use thereof” (SENOMYX, INC., priority 2007, dated 2016).
# Assays:
# [1] = molecular target: hT2R10 (Homo sapiens (Human), UniProt Q9NYW0); assay: hT2R panel inhibition, transient HEK293 G16g44, agonist Strychnine 50 μM; assay type: cell-based; details: HEK293, read-out: screening result against bitter receptor 10, compound at 25 μM; receptor activated to EC80 with the corresponding agonist
# [2] = molecular target: hT2R71 (Homo sapiens (Human), UniProt P59536); assay: hT2R panel inhibition, transient HEK293 G16g44, agonist Picric Acid 10 μM; assay type: cell-based; details: HEK293, compound at 25 μM; receptor activated to EC80 with the corresponding agonist; read-out: screening result against bitter receptor 71
# How it was run: (§1)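 Receptor activity was measured in functional assays after single-receptor transient transfection; bitter agonists were used at their EC80 levels. A decrease in that activity when the test compound was added was taken as inhibition.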
# [3] = molecular target: hT2R5 (Homo sapiens (Human), UniProt Q9NYW4); assay: hT2R panel inhibition, transient HEK293 G16g44, agonist Picoline 10 mM; assay type: cell-based; details: HEK293, compound at 25 μM; receptor activated to EC80 with the corresponding agonist; read-out: screening result against bitter receptor 5
# How it was run: as §1
# [4] = test system: hT2R67; assay: hT2R panel inhibition, transient HEK293 G16g44, agonist Andrographolide 5 μM; assay type: cell-based, human; details: compound at 25 μM; receptor activated to EC80 with the corresponding agonist
# Description: (§2) Specifically, in order to evaluate the inhibitory selectivity of the Compound C compound, this compound was tested against 22 human T2Rs which were deorphaned by Senomyx. These receptors and the bitter ligands that activate these human T2Rs are reported in earlier patent applications which are incorporated by reference herein. These 22 human T2Rs are hT2R1, 3, 4, 5, 7, 8, 9, 10, 13, 14, 16, 44, 51, 54, 55, 61, 63, 64, 65, 67, 71 and 75. The amino acid and nucleic acid sequences of all of these T2Rs may be found in these earlier patent applications. These human T2Rs were each individually transiently transfected into HEK293 cells that stably express the promiscuous G protein G16g44 and functional assays were effected using these receptors as disclosed in these same patent applications. […] The ligands were used at EC80 concentration levels. The list of bitter ligands utilized and the tested ligand concentrations are contained in Table 5 of this example.
# (§3) Relating to the foregoing, FIG. 5 contains experimental results wherein Compound C was tested with different agonist compounds. The inhibition activity is represented by the reduction of receptor activity in the presence of Compound C. […] These 13 hT2Rs are hT2R3, 7, 10, 14, 16, 44, 51, 55, 61, 63, 64, 65, and 71.
# [5] = molecular target: hT2R3 (Homo sapiens (Human), UniProt Q9NYW6); assay: hT2R panel inhibition, transient HEK293 G16g44, agonist Chloroquine pH6.5 50 μM; assay type: cell-based; details: HEK293, compound at 25 μM; receptor activated to EC80 with the corresponding agonist; read-out: screening result against bitter receptor 3
# How it was run: as §1
# [6] = molecular target: hT2R14 (Homo sapiens (Human), UniProt Q9NYV8); assay: hT2R panel inhibition, transient HEK293 G16g44, agonist Aristolochic Acid 2 μM; assay type: cell-based; details: HEK293, compound at 25 μM; receptor activated to EC80 with the corresponding agonist; read-out: screening result against bitter receptor 14
# How it was run: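 Each hT2R was transiently transfected into HEK293 cells stably expressing G16g44 and assayed functionally for inhibition of agonist response. Agonists were applied at EC80: andrographolide at 0.5 mM for hT2R8 and aristolochic acid at 2 μM for hT2R14.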
# [7] = test system: hT2R55; assay: hT2R panel inhibition, transient HEK293 G16g44, agonist Cinchonine 150 μM; assay type: cell-based, human; details: compound at 25 μM; receptor activated to EC80 with the corresponding agonist
# How it was run: as §1
# [8] = test system: hT2R54; assay: hT2R panel inhibition, transient HEK293 G16g44, agonist Ranitidine 5 mM; assay type: cell-based, human; details: compound at 25 μM; receptor activated to EC80 with the corresponding agonist
# Description: as §2, §3
# [9] = molecular target: hT2R64 (Homo sapiens (Human), UniProt P59538); assay: hT2R panel inhibition, transient HEK293 G16g44, agonist Aristolochic Acid 1 μM; assay type: cell-based; details: HEK293, compound at 25 μM; receptor activated to EC80 with the corresponding agonist; read-out: screening result against bitter receptor 64
# How it was run: as §1
# [10] = test system: hT2R65; assay: hT2R panel inhibition, transient HEK293 G16g44, agonist Oleuropein 1 mM; assay type: cell-based, human; details: compound at 25 μM; receptor activated to EC80 with the corresponding agonist
# Description: as §2, §3
# [11] = molecular target: hT2R61 (Homo sapiens (Human), UniProt P59537); assay: hT2R panel inhibition, transient HEK293 G16g44, agonist Aristolochic Acid 25 nM; assay type: cell-based; details: HEK293, compound at 25 μM; receptor activated to EC80 with the corresponding agonist; read-out: screening result against bitter receptor 61
# How it was run: as §1
# [12] = test system: hT2R44; assay: hT2R panel inhibition, transient HEK293 G16g44, agonist Denatonium 0.5 μM; assay type: cell-based, human; details: compound at 25 μM; receptor activated to EC80 with the corresponding agonist
# How it was run: as §1
# [13] = molecular target: hT2R51 (Homo sapiens (Human), UniProt P59533); assay: hT2R panel inhibition, transient HEK293 G16g44, agonist Prop 2.5 μM; assay type: cell-based; details: HEK293, compound at 25 μM; receptor activated to EC80 with the corresponding agonist; read-out: screening result against bitter receptor 51
# Description: as §2, §3
# [14] = molecular target: hT2R16 (Homo sapiens (Human), UniProt Q9NYV7); assay: hT2R panel inhibition, transient HEK293 G16g44, agonist Salicin 1 mM; assay type: cell-based; details: HEK293, compound at 25 μM; receptor activated to EC80 with the corresponding agonist; read-out: screening result against bitter receptor 16
# How it was run: as §1
# [15] = test system: hT2R63; assay: hT2R panel inhibition, transient HEK293 G16g44, agonist Caffeine 1 mM or Andrographolide 100 μM; assay type: cell-based, human; details: compound at 25 μM; receptor activated to EC80 with the corresponding agonist
# How it was run: as §1
# [16] = molecular target: hT2R7 (Homo sapiens (Human), UniProt Q9NYW3); assay: hT2R panel inhibition, transient HEK293 G16g44, agonist Chloroquine pH6.5 10 mM; assay type: cell-based; details: HEK293, compound at 25 μM; receptor activated to EC80 with the corresponding agonist; read-out: screening result against bitter receptor 7
# How it was run: as §1
# [17] = molecular target: hT2R75 (Homo sapiens (Human), UniProt P59540); assay: hT2R panel inhibition, transient HEK293 G16g44, agonist Strychnine 1 μM; assay type: cell-based; details: HEK293, read-out: screening result against bitter receptor 75, compound at 25 μM; receptor activated to EC80 with the corresponding agonist
# Description: as §2, §3
# Sequence of hT2R5 (Q9NYW4 whole entry): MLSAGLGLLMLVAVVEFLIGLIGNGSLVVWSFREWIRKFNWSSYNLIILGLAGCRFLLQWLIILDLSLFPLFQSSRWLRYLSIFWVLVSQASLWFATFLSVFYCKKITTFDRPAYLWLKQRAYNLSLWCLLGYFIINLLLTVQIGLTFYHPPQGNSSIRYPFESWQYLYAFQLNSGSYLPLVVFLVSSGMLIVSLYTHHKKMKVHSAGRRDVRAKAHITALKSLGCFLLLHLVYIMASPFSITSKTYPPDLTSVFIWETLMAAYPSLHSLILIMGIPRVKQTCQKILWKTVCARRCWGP
# Sequence of hT2R16 (Q9NYV7 whole entry): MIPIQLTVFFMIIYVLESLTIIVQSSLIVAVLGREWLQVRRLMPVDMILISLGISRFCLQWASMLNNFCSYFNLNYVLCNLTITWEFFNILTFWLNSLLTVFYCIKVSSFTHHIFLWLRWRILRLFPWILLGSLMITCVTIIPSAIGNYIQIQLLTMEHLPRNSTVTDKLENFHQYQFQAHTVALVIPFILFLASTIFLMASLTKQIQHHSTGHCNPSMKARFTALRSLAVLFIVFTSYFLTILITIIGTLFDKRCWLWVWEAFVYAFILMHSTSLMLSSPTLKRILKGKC
# Sequence of hT2R71 (P59536 whole entry): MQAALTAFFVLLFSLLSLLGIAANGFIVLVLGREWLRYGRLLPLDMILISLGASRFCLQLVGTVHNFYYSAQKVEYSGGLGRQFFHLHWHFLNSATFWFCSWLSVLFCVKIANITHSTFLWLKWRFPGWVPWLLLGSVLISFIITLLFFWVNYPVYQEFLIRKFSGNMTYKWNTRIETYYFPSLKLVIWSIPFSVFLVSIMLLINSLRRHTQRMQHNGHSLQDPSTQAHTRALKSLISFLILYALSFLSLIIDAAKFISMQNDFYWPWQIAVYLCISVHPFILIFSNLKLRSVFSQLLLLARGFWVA
# Sequence of hT2R3 (Q9NYW6 whole entry): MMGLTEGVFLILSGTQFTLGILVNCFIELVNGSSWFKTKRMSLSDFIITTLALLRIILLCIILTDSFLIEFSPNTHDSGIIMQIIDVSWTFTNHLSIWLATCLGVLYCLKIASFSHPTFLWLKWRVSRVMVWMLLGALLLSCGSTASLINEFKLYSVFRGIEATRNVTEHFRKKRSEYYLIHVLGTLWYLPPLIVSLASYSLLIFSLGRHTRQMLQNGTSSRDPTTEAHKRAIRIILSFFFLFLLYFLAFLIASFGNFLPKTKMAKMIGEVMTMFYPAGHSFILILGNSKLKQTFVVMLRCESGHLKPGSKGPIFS
# Sequence of hT2R64 (P59538 whole entry): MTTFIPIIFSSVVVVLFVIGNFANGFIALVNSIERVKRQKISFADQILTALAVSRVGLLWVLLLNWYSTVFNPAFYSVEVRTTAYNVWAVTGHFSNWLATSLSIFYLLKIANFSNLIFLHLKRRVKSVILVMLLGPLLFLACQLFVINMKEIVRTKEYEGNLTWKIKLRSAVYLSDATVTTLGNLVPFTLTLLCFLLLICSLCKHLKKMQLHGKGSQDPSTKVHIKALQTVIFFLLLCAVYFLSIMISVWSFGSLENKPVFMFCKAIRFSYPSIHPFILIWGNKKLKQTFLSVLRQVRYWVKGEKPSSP
# Sequence of hT2R51 (P59533 whole entry): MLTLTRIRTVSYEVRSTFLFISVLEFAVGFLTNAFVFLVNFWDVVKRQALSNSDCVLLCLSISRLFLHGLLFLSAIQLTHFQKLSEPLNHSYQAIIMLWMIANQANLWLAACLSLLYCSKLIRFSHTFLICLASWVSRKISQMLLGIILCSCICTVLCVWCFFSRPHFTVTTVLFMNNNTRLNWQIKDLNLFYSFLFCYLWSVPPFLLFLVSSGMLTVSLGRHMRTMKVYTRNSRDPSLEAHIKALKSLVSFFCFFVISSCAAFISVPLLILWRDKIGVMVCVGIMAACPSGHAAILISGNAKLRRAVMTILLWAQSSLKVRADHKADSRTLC
# Sequence of hT2R14 (Q9NYV8 whole entry): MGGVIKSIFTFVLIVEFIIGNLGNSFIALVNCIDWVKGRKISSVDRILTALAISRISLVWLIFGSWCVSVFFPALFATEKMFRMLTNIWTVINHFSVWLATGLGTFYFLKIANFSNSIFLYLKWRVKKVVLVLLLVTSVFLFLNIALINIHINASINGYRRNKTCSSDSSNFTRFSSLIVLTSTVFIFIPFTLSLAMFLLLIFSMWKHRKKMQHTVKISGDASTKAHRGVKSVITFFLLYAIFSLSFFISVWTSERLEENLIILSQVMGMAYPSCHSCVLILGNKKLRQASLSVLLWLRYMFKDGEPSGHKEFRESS
# Sequence of hT2R61 (P59537 whole entry): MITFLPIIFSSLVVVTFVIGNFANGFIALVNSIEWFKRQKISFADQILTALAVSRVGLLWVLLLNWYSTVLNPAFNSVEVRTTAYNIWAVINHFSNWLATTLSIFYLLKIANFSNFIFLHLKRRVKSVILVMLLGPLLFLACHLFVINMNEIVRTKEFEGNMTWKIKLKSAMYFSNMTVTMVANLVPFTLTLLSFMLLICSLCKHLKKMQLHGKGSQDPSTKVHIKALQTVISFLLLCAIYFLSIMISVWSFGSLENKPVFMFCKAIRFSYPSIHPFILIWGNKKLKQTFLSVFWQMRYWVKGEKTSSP
# Sequence of hT2R10 (Q9NYW0 whole entry): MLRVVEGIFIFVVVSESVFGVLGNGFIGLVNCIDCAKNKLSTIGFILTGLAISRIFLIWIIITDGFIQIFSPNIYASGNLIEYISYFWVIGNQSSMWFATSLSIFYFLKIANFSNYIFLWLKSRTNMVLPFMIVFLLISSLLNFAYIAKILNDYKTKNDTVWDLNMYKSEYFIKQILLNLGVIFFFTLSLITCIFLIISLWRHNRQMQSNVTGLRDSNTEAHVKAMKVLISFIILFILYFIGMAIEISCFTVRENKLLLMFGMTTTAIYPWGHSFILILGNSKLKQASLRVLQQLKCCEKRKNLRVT
# Sequence of hT2R7 (Q9NYW3 whole entry): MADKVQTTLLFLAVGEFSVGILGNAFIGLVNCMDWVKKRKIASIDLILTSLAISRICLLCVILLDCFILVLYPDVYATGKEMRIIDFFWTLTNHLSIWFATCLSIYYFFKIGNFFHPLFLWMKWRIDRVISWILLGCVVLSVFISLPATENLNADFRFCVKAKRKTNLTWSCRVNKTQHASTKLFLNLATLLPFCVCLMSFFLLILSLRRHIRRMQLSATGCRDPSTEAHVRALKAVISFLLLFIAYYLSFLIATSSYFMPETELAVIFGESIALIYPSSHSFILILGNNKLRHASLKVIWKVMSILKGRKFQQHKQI
# Sequence of hT2R75 (P59540 whole entry): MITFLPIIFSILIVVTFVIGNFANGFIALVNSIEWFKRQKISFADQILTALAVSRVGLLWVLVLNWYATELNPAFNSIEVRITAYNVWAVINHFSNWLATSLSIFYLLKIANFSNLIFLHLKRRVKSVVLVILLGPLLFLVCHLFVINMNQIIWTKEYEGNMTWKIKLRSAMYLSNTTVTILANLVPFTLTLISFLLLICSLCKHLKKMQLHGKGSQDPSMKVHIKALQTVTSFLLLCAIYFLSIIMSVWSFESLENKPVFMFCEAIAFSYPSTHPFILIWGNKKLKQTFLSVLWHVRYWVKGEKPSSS
Structure (SMILES),inhibition at 25 µM [1],inhibition at 25 µM [2],inhibition at 25 µM [3],screening result against bitter receptor 67 [4],inhibition at 25 µM [5],inhibition at 25 µM [6],screening result against bitter receptor 55 [7],screening result against bitter receptor 54 [8],inhibition at 25 µM [9],screening result against bitter receptor 65 [10],inhibition at 25 µM [11],screening result against bitter receptor 44 [12],inhibition at 25 µM [13],inhibition at 25 µM [14],screening result against bitter receptor 63 [15],inhibition at 25 µM [16],inhibition at 25 µM [17]
"O=C(O)c1ccc(S(=O)(=O)N(Cc2ccccc2)Cc2cccc(F)c2)cc1 [Example 5-79, 4-(N-benzyl-N-(3-fluorobenzyl)sulfamoyl)benzoic acid]",20 to 40%,60 to 80%,20 to 40%,+ (20% to 40% inhibition = +),40 to 60%,> 80%,+++ (60% to 80% inhibition = +++),+ (20% to 40% inhibition = +),60 to 80%,++ (40% to 60% inhibition = ++),> 80%,++ (40% to 60% inhibition = ++),> 80%,20 to 40%,++++ (80% or greater inhibition = ++++),–,–
"COc1ccc(CCN(Cc2ccccc2)S(=O)(=O)c2ccc(C(=O)O)cc2)cc1 [Example 5-81, 4-(N-benzyl-N-(4-methoxyphenethyl)sulfamoyl)benzoic acid]",20 to 40%,20 to 40%,–,+ (20% to 40% inhibition = +),20 to 40%,> 80%,+++ (60% to 80% inhibition = +++),–,40 to 60%,+ (20% to 40% inhibition = +),60 to 80%,++ (40% to 60% inhibition = ++),20 to 40%,20 to 40%,+++ (60% to 80% inhibition = +++),20 to 40%,–
"COc1cccc(CN(Cc2ccccc2)S(=O)(=O)c2ccc(C(=O)O)cc2)c1 [Example 5-74, 4-(N-benzyl-N-(3-methoxybenzyl)sulfamoyl)benzoic acid]",40 to 60%,60 to 80%,20 to 40%,+ (20% to 40% inhibition = +),20 to 40%,> 80%,+++ (60% to 80% inhibition = +++),++ (40% to 60% inhibition = ++),20 to 40%,++ (40% to 60% inhibition = ++),> 80%,+ (20% to 40% inhibition = +),40 to 60%,20 to 40%,++++ (80% or greater inhibition = ++++),20 to 40%,–
"N#Cc1cccc(CN(Cc2ccccc2)S(=O)(=O)c2ccc(C(=O)O)cc2)c1 [Example 5-75, 4-(N-benzyl-N-(3-cyanobenzyl)sulfamoyl)benzoic acid]",–,–,20 to 40%,–,–,–,–,–,–,–,20 to 40%,–,20 to 40%,–,+ (20% to 40% inhibition = +),–,20 to 40%
